# Experimental data: EP0582261A1, “Cephalosporin compounds and processes for the preparation thereof” (LUCKY LTD., priority 1992, dated 1994)
# Assays:
# Test in all cases: MIC, two-fold dilution method on Müller-Hinton agar
# Format in all cases: cell-based
# Conditions in all cases: incubated at 37°C for 20 hours
# [1] = test system: Escherichia coli ATCC 25922
# Description: (§1) The same procedures as described in Example 163 were repeated using 7-amino-1,8-dimethyl[1,3]imidazo[1,2-c] pyrimidine-5-thione prepared in Preparation Example 36 in place of 7-amino-1-methyl[1,3]imidazo[1,2-c]pyrimidine-5-thione to yield 190mg and 180mg of the title compound(a) and (b), respectively, as white solids.
# (§2) These MIC values were taken by employing a two-fold dilution method: that is, two-fold serial dilutions of each of the test compounds were made and dispersed in a Müller-Hinton agar medium; 2µl of the standard test strain which had the 10⁷ CFU(Colony Forming Unit) per ml was inoculated on the medium; and these were incubated at 37°C for 20 hours.
# [2] = test system: Proteus vulgaris ATCC 6059
# Description: as §1, §2
# [3] = test system: Enterobacter cloacae ATCC 27508
# Description: as §1, §2
# [4] = test system: Bacillus cereus ATCC 11778
# Description: as §1, §2
# [5] = test system: Micrococcus luteus ATCC 9341
# Description: as §1, §2
# [6] = test system: Staphylococcus aureus ATCC 6538p
# Description: as §1, §2
# [7] = test system: Klebsiella pneumoniae ATCC 10031
# Description: as §1, §2
# [8] = test system: Bacillus megaterium ATCC 9885
# Description: as §1, §2
# [9] = test system: Shigella sonnei ATCC 11060
# Description: as §1, §2
# [10] = test system: Pseudomonas aeruginosa ATCC 10145
# Description: as §1, §2
# [11] = test system: Staphylococcus epidermidis ATCC 12228
# Description: as §1, §2
# [12] = test system: Pseudomonas aeruginosa ATCC 25619
# Description: as §1, §2
# [13] = test system: Shigella flexneri ATCC 11836
# Description: as §1, §2
# [14] = test system: Salmonella typhimurium ATCC 14028
# Description: as §1, §2
# [15] = test system: Serratia marcescens ATCC 27117
# Description: as §1, §2
# [16] = test system: Providencia rettgeri ATCC 9250
# Description: as §1, §2
# [17] = test system: Enterobacter aerogenes ATCC 29751
# Description: as §1, §2
# [18] = test system: Staphylococcus aureus ATCC 10537
# Description: as §1, §2
# [19] = test system: Proteus mirabilis ATCC 25933
# Description: as §1, §2
# [20] = test system: Acinetobacter calcoaceticus ATCC 15473
# Description: as §1, §2
# [21] = test system: Morganella morganii ATCC 8076h
# Description: as §1, §2
# [22] = test system: Pseudomonas aeruginosa ATCC 27853
# Description: as §1, §2
# [23] = test system: Citrobacter freundii ATCC 8090
# Description: as §1, §2
# [24] = test system: Streptococcus faecalis ATCC 29212
# Description: as §1, §2
# [25] = test system: Escherichia coli ATCC 10536
# Description: as §1, §2
Substance,MIC values against the standard strains [1] [µg/mL],MIC values against the standard strains [2] [µg/mL],MIC values against the standard strains [3] [µg/mL],MIC values against the standard strains [4] [µg/mL],MIC values against the standard strains [5] [µg/mL],MIC values against the standard strains [6] [µg/mL],MIC values against the standard strains [7] [µg/mL],MIC values against the standard strains [8] [µg/mL],MIC values against the standard strains [9] [µg/mL],MIC values against the standard strains [10] [µg/mL],MIC values against the standard strains [11] [µg/mL],MIC values against the standard strains [12] [µg/mL],MIC values against the standard strains [13] [µg/mL],MIC values against the standard strains [14] [µg/mL],MIC values against the standard strains [15] [µg/mL],MIC values against the standard strains [16] [µg/mL],MIC values against the standard strains [17] [µg/mL],MIC values against the standard strains [18] [µg/mL],MIC values against the standard strains [19] [µg/mL],MIC values against the standard strains [20] [µg/mL],other results
"7-[(Z)-2-(5-amino-1,2,4-thiadiazol-3-yl)-2-(ethoxyimino)acetamido]-3-(7-amino-1-methyl[1,2,4] triazolo[1,5-c]pyrimidinium-5-yl)thiomethyl-3-cephem-4-carboxylate [Exp. 72]",0.063,0.5,≤0.008,16,0.016,0.25,0.016,0.063,0.063,4,0.25,1,0.031,0.25,0.25,≤0.008,0.25,0.13,0.25,1,MIC values against the standard strains [21]: ≤0.008 µg/mL; MIC values against the standard strains [22]: 4 µg/mL; MIC values against the standard strains [23]: 0.063 µg/mL; MIC values against the standard strains [24]: 8 µg/mL; MIC values against the standard strains [25]: 0.063 µg/mL
"7-[(Z)-2-(2-aminothiazol-4-yl)-2-((S-1-carboxyeth-1-oxyimino)acetamido]-3-(7-amino-1-methyl [1,2,4]triazolo[1,5-c]pyrimidinium-5-yl)thiomethyl-3-cephem-4-carboxylate [Exp. 22(S)]",0.13,0.31,0.016,128,0.13,4,0.031,0.25,0.063,2,1,1,0.13,0.25,0.13,≤0.008,0.5,2,0.25,4,MIC values against the standard strains [21]: ≤0.008 µg/mL; MIC values against the standard strains [22]: 2 µg/mL; MIC values against the standard strains [23]: 0.063 µg/mL; MIC values against the standard strains [24]: >128 µg/mL; MIC values against the standard strains [25]: 0.031 µg/mL
